Assay results from the supplement of paper PMC5580409.

system: Plasmodium falciparum 3D7; test: pEC50, asexual blood-stage growth inhibition; conditions: 72 h
Procedure: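 Held-out test set measured in the Guy lab in 2014 with the same procedure as the primary St. Jude screen. P. falciparum 3D7 blood-stage culture (2% hematocrit, 1% parasitemia) was treated with compound for 72 h at 37 °C, and growth was read by SYBR Green I fluorescence. EC50 came from a four-parameter Hill fit over a 10-point dilution series […].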

| Compound | pEC50 |
| --- | --- |
| CCN1\C(=C/C=C(C)/C=C/c2sc3ccccc3[n+]2CC)Sc2ccccc21 | 5.34 |
| Fc1ccccc1N1CCN(CC2CC3C=CC2C3)CC1 (centres undefined) | < 4.82 |
| Cc1cccc(C2(c3cccc(C)c3)CC2C(=O)Nc2cc([N+](=O)[O-])ccc2O)c1 (centres undefined) | 5.27 |
| CCOC(=O)c1cnc2c(C)cccc2c1Nc1cccc(C(C)=O)c1 | 5.35 |
| Cc1ccccc1OCC(O)CNC1CCCCC1 (centres undefined) | < 4.82 |
| CC1CCN(CC(O)Cn2c3ccc(Cl)cc3c3cc(Cl)ccc32)CC1 (centres undefined) | < 4.82 |
| OC(CN1CCCCCC1)Cn1c2ccccc2c2ccccc21 (centres undefined) | < 4.82 |
| N=c1n(CCN2CCOCC2)c2ccccc2n1CC(O)COc1ccc(Cl)cc1 (centres undefined) | < 4.82 |
| COc1cccc(CNCC(O)c2ccccc2)c1 (centres undefined) | < 4.82 |
| COc1ccc(NCC(O)Cn2c3ccc(Cl)cc3c3cc(Cl)ccc32)c(OC)c1 (centres undefined) | < 4.82 |
| OC(CNCC1CCCO1)Cn1c2ccc(Br)cc2c2cc(Br)ccc21 (centres undefined) | 5.76 |
| O=C(CNCc1ccccc1)c1ccc(Br)cc1 | < 4.82 |
| Oc1ccc(Cl)cc1CN1CCCC(N2CCCC2)C1 (centres undefined) | < 4.82 |
| Cc1cc(Cl)ccc1OCC(O)CNC1CCCC1 (centres undefined) | 5.18 |
| Cn1nccc1C(=O)Nc1cc(Oc2ccc(Cl)cc2)cc([N+](=O)[O-])c1 | < 4.82 |
| CC(=O)Nc1cccc(Nc2nc(N3CCCCC3)nc(N(c3ccccc3)c3ccccc3)n2)c1 | 5.61 |
| CCOC(=O)c1c(C)oc2ccc(OC)cc12 | < 4.82 |
| CC(=O)Nc1ccc(-c2nc3cc(-c4nc5cc(NC(C)=O)ccc5[nH]4)ccc3[nH]2)cc1 | 6.5 |
| Cc1cccc(NC(=O)CSc2nc(C)c(C)n2-c2ccccc2)c1C | < 4.82 |
| CCOC(=O)c1ccc(NC(=O)CC2C(=O)N(c3ccc(OC)cc3)C(=O)N2CCC(C)C)cc1 (centres undefined) | < 4.82 |
| COc1cccc(CNc2nnnn2C)c1OCc1ccc(C)cc1 | < 4.82 |
| CCn1ncc(Cl)c1C(=O)Nc1ccc(C)c([N+](=O)[O-])c1 | < 4.82 |
| CCOc1ccccc1Oc1c(C(F)(F)F)oc2c(CN3CCCCCC3)c(O)ccc2c1=O | < 4.82 |
| O=C(Cc1cccc2ccccc12)Nc1ccc(-c2nc3ccccc3[nH]2)cc1 | 5.57 |
| CCCn1c(=N)n(CC(O)COc2ccc(Cl)cc2)c2ccccc21 (centres undefined) | < 4.82 |
| Cc1ccc2[nH]c(-c3ccc(NC(=O)c4ccc(C)c(C)c4)cc3)nc2c1 | 5.44 |
| COCCNCC(O)Cn1c2ccc(Cl)cc2c2cc(Cl)ccc21 (centres undefined) | 5.63 |

| Compound | pEC50 |
| --- | --- |
| CC(C)c1ccc(/C=C/C(=O)Nc2ccc(F)cc2)cc1 | 5.21 |
| N=c1n(CCN2CCCCC2)c2ccccc2n1CC(O)COc1ccc(Cl)cc1Cl (centres undefined) | 5.53 |
| CC[n+]1c(/C=C/c2cc(C)n(-c3ccccc3)c2C)sc2ccccc21 | < 4.82 |
| CCC(C(=O)Nc1cccc(-c2nc3ccccc3[nH]2)c1)c1ccccc1 (centres undefined) | < 4.82 |
| Cc1ccc(C)c(OCC(O)CNC2CCCC2)c1 (centres undefined) | < 4.82 |
| CCOC(=O)C1=C(C)NC2=C(C(=O)CC(c3ccco3)C2)C1c1ccc(OC)c(OC)c1 (centres undefined) | < 4.82 |
| Cc1ccc(OCCN(C)C(=O)c2cn(C3CCCCC3)cc(C(=O)NC(C)(C)C)c2=O)cc1 | 5.03 |
| CCCCN(CCCC)CC(O)COc1ccccc1[N+](=O)[O-] (centres undefined) | 7.13 |
| COc1ccc(N2CCN(C(=O)c3ccc(C)cc3)CC2)c([N+](=O)[O-])c1 | 5.23 |
| CN(C)c1ccc(NC(=O)C2CC2c2ccccc2)cc1 (centres undefined) | < 4.82 |
| O=C(NC1CCCCC1)c1cn(C2CC2)cc(C(=O)NC2CCN(Cc3ccccc3)CC2)c1=O | < 4.82 |
| CN(C)c1ccc(NC(=O)/C=C/c2ccccc2Cl)cc1 | 4.99 |
| CC(C)(C)NC(=O)c1cn(C2CCCCC2)cc(C(=O)N2CCC(c3ccccc3)CC2)c1=O | < 4.82 |
| Cc1cccc(Oc2c(C(F)(F)F)oc3c(CN4CCN(C)CC4)c(O)ccc3c2=O)c1 | 5.27 |
| CCOc1ccc(-c2nc3cc(C)ccc3[nH]2)cc1 | 5.12 |
| Cc1cc(C)c(C)c(Oc2cc(NC(=O)c3c(I)cnn3C)cc([N+](=O)[O-])c2)c1 | 6.28 |
| CCCCNCC(O)COc1ccc(Cl)c(C)c1 (centres undefined) | 5.14 |
| CC(C)c1ccc(/C=C/C(=O)Nc2ccc(C(C)C)cc2)cc1 | < 4.82 |
| Oc1ccc(Br)cc1CN1CCN(CC2CC3C=CC2C3)CC1 (centres undefined) | 5.39 |
| CCN(CC)c1nc(Nc2cccc(Br)c2)nc(Nc2cc(C)ccc2C)n1 | < 4.82 |
| COc1c(O)ccc(/C=N/NC(=O)C2CC2(c2ccccc2)c2ccccc2)c1[N+](=O)[O-] (centres undefined) | < 4.82 |
| COc1ccc(C(O)Cn2c(=N)n(CCN3CCCCC3)c3ccccc32)cc1 (centres undefined) | < 4.82 |
| CCn1c(SCC(=O)Nc2cc(C(F)(F)F)ccc2Cl)nnc1-c1ccccc1Cl | < 4.82 |
| CC(CN1CCCCC1)NC(=O)c1cc(-c2cccnc2)nc2ccc(Cl)cc12 (centres undefined) | 5.7 |
| COc1ccc(S(=O)(=O)N2CCC(CO)(Cc3ccccc3C(F)(F)F)CC2)cc1 | < 4.82 |
| CC(C)CCn1cc(C(=O)NC(C)(C)C)c(=O)c(C(=O)N2CCN(C/C=C/c3ccccc3)CC2)c1 | < 4.82 |
| CCOC(=O)c1cnc2c(Cl)cccc2c1Nc1cccc(C(C)=O)c1 | 5.35 |
